Calls of active or inactive are those of the source. The calls are words filed in the database; no cut-off is given here.
Tests used:
[1] = target: T1, Dual specificity tyrosine-phosphorylation-regulated kinase 1B (Homo sapiens, UniProt Q9Y463); assay: Inhibition of GST-tagged DYRK1B (unknown origin) incubated for 30 mins using DYRKtide by ADP-Glo assay
Target sequence in this assay (Q9Y463 whole entry): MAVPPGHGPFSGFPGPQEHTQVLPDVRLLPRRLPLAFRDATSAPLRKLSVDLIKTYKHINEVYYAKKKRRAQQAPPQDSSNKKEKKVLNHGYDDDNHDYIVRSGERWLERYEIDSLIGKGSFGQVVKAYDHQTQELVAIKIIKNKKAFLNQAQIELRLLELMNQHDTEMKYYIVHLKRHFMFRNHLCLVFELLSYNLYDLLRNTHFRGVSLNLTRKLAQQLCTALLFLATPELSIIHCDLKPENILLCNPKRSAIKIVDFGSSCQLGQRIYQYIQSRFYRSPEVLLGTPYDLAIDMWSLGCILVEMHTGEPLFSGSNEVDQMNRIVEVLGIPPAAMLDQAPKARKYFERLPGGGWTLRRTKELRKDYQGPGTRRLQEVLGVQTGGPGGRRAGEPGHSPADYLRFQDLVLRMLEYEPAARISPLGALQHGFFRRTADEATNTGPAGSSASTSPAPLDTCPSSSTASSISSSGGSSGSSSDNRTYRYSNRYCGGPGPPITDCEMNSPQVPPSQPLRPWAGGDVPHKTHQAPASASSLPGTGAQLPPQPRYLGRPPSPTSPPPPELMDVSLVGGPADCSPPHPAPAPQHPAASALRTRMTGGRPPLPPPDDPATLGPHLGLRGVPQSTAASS

HT-29 [2] = assay: Cytotoxicity against human HT-29 multicellular tumor spheroid cells at 0.15 to 20 uM incubated for 48 hrs by Hoechst and SYTOX staining based assay; type: functional, cell-based; conditions: dose 0.15-20 µM
HT-29 [3] = assay: Cytotoxicity against human HT-29 multicellular tumor spheroid cells at 5 uM incubated for 48 hrs by Hoechst and SYTOX staining based assay; type: functional, cell-based
HT-29 [4] = assay: Cytotoxicity against human HT-29 multicellular tumor spheroid cells at 5 uM incubated for 48 hrs under hypoxic conditions by Hoechst and SYTOX staining based assay; type: functional, cell-based
[5] = target: T1, Dual specificity tyrosine-phosphorylation-regulated kinase 1B; assay: Inhibition of DYRK1B un human HT-29 cells assessed as reduction p27 Ser10 phosphorylation at 2.5 to 10 uM; type: cell-based; conditions: dose 2.5-10 µM
Target sequence in this assay (Q9Y463 whole entry, looked up): as the sequence (Q9Y463 whole entry) above

[6] = target: T1, Dual specificity tyrosine-phosphorylation-regulated kinase 1B; assay: Inhibition of GST-tagged DYRK1B (unknown origin) assessed as reduction p27 Ser10 phosphorylation at 0.1 to 10 uM; conditions: dose 0.1-10 µM
Target sequence in this assay (Q9Y463 whole entry, looked up): as the sequence (Q9Y463 whole entry) above

Row | IC50 [1] | inhibition [5] | inhibition [6] | Compound | Activity (HT-29 [2]) | Activity (HT-29 [3]) | Activity (HT-29 [4])
1 | 3000 nM | – | – | CCNc1nccc(-c2cnn(-c3ccccc3F)c2)n1 | – | – | –
2 | 3000 nM | – | – | COc1ccccc1-n1cc(-c2ccnc(NCc3c(C)n[nH]c3C)n2)cn1 | – | – | –
3 | 4000 nM | Active | Active | Fc1ccccc1-n1cc(-c2ccnc(NCc3ccncc3)n2)cn1 | Active | Active | Active
4 | 2000 nM | – | – | Fc1ccccc1-n1cc(-c2ccnc(NC3CCOCC3)n2)cn1 | – | – | –
